How the values were obtained:
[1] = system: cerebral extracellular lactate; test: In vivo pharmacodynamics - lactate biosensors; design: species or system mouse; conditions: 100 mg/kg per os, AUC ratio vs vehicle
Protocol: Extracellular levels of lactate were monitored in vivo using lactate biosensors (Pinnacle Technology), according to the manufacturer's instructions. Cannulae were surgically implanted in mice cerebral cerebral motor cortex areas M1/M2 (coordinates: +1.94 mm (to bregma), lateral −1.4 mm (to mideline), ventral −1.0 mm (to dura)) 5-7 days before administration of the compounds. Drugs were administered per os as previously described, and cerebral levels of extracellular lactate were dynamically recorded for 6 hours. Mice were administered vehicle alone first, followed 3 hours later by vehicle or drug (10 or 100 mg/kg). Area Under the Curve (AUC) quantifying the fluctuations of extracellular lactate concentrations for each of the compound tested was calculated using Graphad Prism and the ratio of AUC after drug over Vehicle administration was calculated. Groups of 8 male mice were used for each condition.
To measure biological effect of lead molecules in vivo in the brain, lactate levels were quantified after administration of the drug by using lactate biosensors implanted in the cortex of freely moving mice.

[2] = In vivo pharmacokinetics (microdialysis of prefrontal cortex and plasma); design: species or system mouse; conditions: gavage 100 mg/kg; therapeutic range 100 nM to 1 uM
Protocol: Mice were anesthetized using isoflurane (2% and 800 mL/min 02). Before surgery, Finadyne (1 mg/kg, s.c.) was administered for analgesia during surgery and the post-surgical recovery period. A mixture of bupivacaine and epinephrine was used for local anesthesia of the incision site of the periost of the skull.
The animals were placed in a stereotaxic frame (Kopf instruments, USA). MetaQuant microdialysis probes with a 3 mm exposed polyacrylonitrile membrane (MQ-PAN 3/3, Brainlink, the Netherlands) were implanted into the prefrontal cortex (coordinates for the tip of the probe: AP=+2.0 mm (to bregma), lateral=−0.7 mm (to midline), ventral=−3.3 mm (to dura), with the incisor bar set at 0.0 mm and an angle of 8°). All coordinates were based on “The mouse brain in stereotaxic coordinates” by Paxinos and Franklin (2004). The probes were attached to the skull with a stainless steel screw and dental cement (Fuji Plus Capsules, Henry Schein, the Netherlands).
In the same surgical procedure, a catheter was placed into the jugular vein to accommodate blood sampling. An indwelling cannula was inserted into the right jugular vein, and exteriorized through an incision on top of the skull. […]
PK was measured for GP-04, GP-05, GP-07, GP-R1 and GP-P1 in the prefrontal cortex and plasma of wild type C56Bl/6 mice by CRO Brainsonline.

primary mouse astrocytes = test: Extracellular lactate quantification, Example 2; format: cell-based; conditions: Astrocyte, 3 nM to 30 μM, 1.5 h, read-out: EC50 release of lactate
Protocol: Primary cultures of cerebrocortical astrocytes were obtained from 1 to 2-day-old OF1 mouse pups (Charles River). Briefly, cortices were isolated and minced in small pieces under a dissecting microscope. The cells were incubated for 30 min at 37° C. in a solution containing 20 U/ml papain, 1 mM L-cysteine and 10 kU/ml DNase I. After dissociation, papain activity was stopped by the addition of fetal calf serum (FCS). Single-cell suspension was then obtained by mechanical dissociation, which consisted in cells trituration in a DMEM D7777 medium supplemented with 44 mm NaHCO3, 10 ml/L antibiotic/antimycotic solution and 10% FCS. […]
Secretion of L-lactate was measured in the extracellular medium of 96-well plated astrocytes after 90 min stimulation (at 37° C., in 5% CO2/95% air conditions) with Vehicle (DMSO), the compounds of the invention (100 nM to 100 μM) or positive control. […] To quantify lactate concentrations in the extracellular medium, 200 μl of a 0.2M Glycine-semicarbazide buffer (pH 10) containing 3 mM NAD and 14 U/ml LDH was added to each well of a 96-well plate containing 30 μl aliquots of extracellular medium. […] Fluorescence intensity (340 nm excitation/450 nm emission), which represents the amount of NADH produced, was measured, and lactate concentration values were determined relative to a standard curve of L-lactate concentrations. […]

levels in the prefrontal cortex [2]	EC50 (primary mouse astrocytes) [nM]	Structure (SMILES)	cerebral lactate [1]
need chemical improvement		CC(=O)N1CCc2sc(S(=O)(=O)N3CCN(c4ccccc4C)CC3)cc2C1 [P025-0159]	Significant increase
	590	Cc1ccccc1NC(=O)C1CCCN(c2ncnc3oc(C)c(C)c23)C1 (stereo not drawn) [F228-0422]	
at therapeutic range		COc1cc(C)c(Cl)cc1S(=O)(=O)NCc1ccncc1 [T5580243]	Significant increase
		N#Cc1ccc(C(=O)N2CCC(Nc3ncnc4c3CCC4)C2)cc1 (stereo not drawn) [T636-2387]	Significant increase

From US12310967B2, “Compositions and methods of treatment for neurological disorders comprising motor neuron diseases” (Gliapharm SA, priority 2017, dated 2025)
